Measured values: patent US20250092269A1, “ANTI-BIOFOULING COMPOSITION” (Montana Technological University, priority 2023, published 2025)

Tests used:
P. aeruginosa (PAO1) = assay: Biofilm growth on filtration membranes in bench scale nanofiltration system, 4-hour operation (CLSM); format: cell-based, Pseudomonas aeruginosa
Method: Polymeric Component: A polymer blend for electrospinning was prepared comprising 3 wt. % PEG (8,000 MW, Sigma Aldrich) and 8.9 wt. % PCL (80,000 MW, Sigma Aldrich) in chloroform. The PEG/PCL polymer blend was stirred with a Teflon coated stir bar at 80° C. until no visible polymer weas present.
Anti-Quorum Sensing Molecules: The polymeric component comprising the polymer blend was seeded with Urolithin A at a concentration of 200 μg/mL during mixing. Fiber mats comprising Urolithin A were stored at 4-8° C. for preservation prior to application.
Electrospinning: The polymeric component comprising the polymer blend was pumped continuously by a syringe pump at a fixed rate of 0.250 mL/hour to a vertical Spraybase electrospinner equipped with a 22-guage needle at a voltage of 6.6 kV and grounded equidistant copper-plated parallel electrodes for uniaxially aligned deposition (parallel gap electrospinning). A separation distance of 4 cm between the needle and grounded electrodes were maintained for 20 minutes while the fiber mat was fabricated. Fiber mats were rotated at 10 minutes to achieve a crosshatch filter pattern. Fibers were then placed onto MCE membranes and investigated for their controlled release of the anti-QS molecules. […]

[1] = Membrane performance (water quantity output) in bench scale nanofiltration system; details: electrospun 3:1 PCL:PEG fibers with Urolithin A 200 μg/mL; 4-hour operation
Excerpt: (§1) Bench Scale Nanofiltration System: A bench scale nanofiltration system for monitoring water output efficiencies and biofilm formation on MCE membranes was used as illustrated in FIG. 2.
In this example, biofouling on filtration membranes was investigated by examining anti-quorum sensing molecules in P. aeruginosa (PAO1). More specifically, a membrane comprising an unmodified membrane (referred to “MCE Control”); a membrane (referred to as “Control Fibers”) comprising a filter coating, which was deposited by electrospinning fibers comprising a polymer blend (3:1 polycaprolactone (PCL) to polyethylene glycol (PEG)); and a membrane (referred to as “Anti-QS Fibers” comprising a filter coating, which was deposited by electrospinning fibers comprising a polymer blend (3:1 polycaprolactone (PCL) to polyethylene glycol (PEG)) associated with one or more anti-QS molecules (200 μg/mL). Biofilm growth over a 4-hour operation was investigated and compared for the MCE Control, Control Fibers, and Anti-QS Fibers.

biofilm [2] = assay: Biofilm growth on membranes with Urolithin A fibers at 50, 100, 200 μg/mL (CLSM); format: cell-based; details: PCL/PEG fibers with Urolithin A 50, 100, 200 μg/mL; FIG. 6A-6D
Method: as §1
In this example, biofouling on filtration membranes was investigated by comparing membranes comprising a filter coating associated with one or more anti-QS Urolithin A molecules having concentrations of 50 μg/mL, 100 μg/mL, and 200 μg/mL.
FIG. 6A is a confocal microscopy (CLSM) image showing the biofilm growth on an unmodified control membrane. FIG. 6B is a confocal microscopy (CLSM) image showing the biofilm growth on a membrane comprising electrospun PCL/PEG fibers associated with one or more anti-QS Urolithin A molecules (50 μg/mL). FIG. 6C is a confocal microscopy (CLSM) image showing the biofilm growth on a membrane comprising electrospun PCL/PEG fibers associated with one or more anti-QS Urolithin A molecules (100 μg/mL). FIG. 6D is a confocal microscopy (CLSM) image showing the biofilm growth on a membrane comprising electrospun PCL/PEG fibers associated with one or more anti-QS Urolithin A molecules (200 μg/mL).

biofilm [3] = assay: Biofilm biovolume after 4-hour filtration test, furanone C-30 fibers vs control fibers (SEM); format: cell-based; details: furanone C-30 control-released from 3:1 PCL/PEG fibers on MCE filter
Excerpt: as §1
In this example, a membrane comprising a filter coating, which was deposited by electrospinning fibers comprising a polymer blend (3:1 polycaprolactone (PCL) to polyethylene glycol (PEG)) associated with one or more anti-QS molecules furanone C-30 was compared to a control membrane comprising a filter coating, which was deposited by electrospinning fibers comprising a polymer blend (3:1 polycaprolactone (PCL) to polyethylene glycol (PEG).
FIG. 8A is a scanning electron micrograph image showing the biofilm biovolume after a 4-hour filtration test of a MCE filter comprising electrospun PCL/PEG fibers. FIG. 8B is a scanning electron micrograph image showing the biofilm biovolume after a 4-hour filtration test of a MCE filter comprising electrospun PCL/PEG fibers associated with one or more anti-QS furanone C-30 molecules.

Structure (SMILES)	reduction of biofilm formation during filtration compared to the MCE Control (P. aeruginosa (PAO1); electrospun 3:1 PCL:PEG coating with Urolithin A 200 μg/mL) [%]	increase of biovolume reduction by controlled release of anti QS molecules (P. aeruginosa (PAO1); electrospun 3:1 PCL:PEG fibers with Urolithin A 200 μg/mL) [%]	increase of flux [1] [%]	biofilm biovolume vs concentration of Urolithin A in fibers (biofilm [2])	reduction in biovolume relative to the control membrane (PCL/PEG fibers) (biofilm [3]) [%]
O=c1oc2cc(O)ccc2c2ccc(O)cc12 [Urolithin A]	83.48	26.05	52.78	biofilm biovolume reduction corresponding to the increased concentrations	
O=C1C=C(Br)/C(=C/Br)O1 [furanone C-30]					57.5
